According to ChEMBL document CHEMBL3044945, “Synthesis of 1,3,5-trisubstituted pyrazoline nucleus containing compounds and screening for antimicrobial activity” (2012):
In brackets after ≈: the same amount, converted by molar mass.

Experiments:
Format in all cases: functional
[1] = tested on: Penicillium chrysogenum; experiment: Antifungal activity against Penicillium chrysogenum MTCC 161 after 24 to 48 hr by tube dilution method
[2] = tested on: Micrococcus luteus; experiment: Antibacterial activity against Micrococcus luteus MTCC 1538 after 24 to 48 hr by tube dilution method
[3] = tested on: Bacillus subtilis; experiment: Antibacterial activity against Bacillus subtilis MTCC 441 at 750 ug/ml after 48 hr by cup-plate method; details: MTCC 441, 48 h, read-out: DIZ
[4] = tested on: Penicillium chrysogenum; experiment: Antifungal activity against Penicillium chrysogenum MTCC 161 at 750 ug/ml after 48 hr by cup-plate method; details: MTCC 161, 48 h, read-out: DIZ
[5] = tested on: Staphylococcus aureus; experiment: Antibacterial activity against Staphylococcus aureus MTCC 1430 at 500 ug/ml after 48 hr by cup-plate method; details: MTCC 1430, 48 h, read-out: DIZ
[6] = tested on: Escherichia coli; experiment: Antibacterial activity against Escherichia coli MTCC 1573 at 1000 ug/ml after 48 hr by cup-plate method; details: MTCC 1573, 48 h, read-out: DIZ
[7] = tested on: Staphylococcus aureus; experiment: Antibacterial activity against Staphylococcus aureus MTCC 1430 at 1250 ug/ml after 48 hr by cup-plate method; details: MTCC 1430, 48 h, read-out: DIZ
[8] = tested on: Bacillus subtilis; experiment: Antibacterial activity against Bacillus subtilis MTCC 441 at 1250 ug/ml after 48 hr by cup-plate method; details: MTCC 441, 48 h, read-out: DIZ
[9] = tested on: Aspergillus niger; experiment: Antifungal activity against Aspergillus niger MTCC 2546 at 1000 ug/ml after 48 hr by cup-plate method; details: MTCC 2546, 48 h, read-out: DIZ
[10] = tested on: Bacillus subtilis; experiment: Antibacterial activity against Bacillus subtilis MTCC 441 after 24 to 48 hr by tube dilution method
[11] = tested on: Staphylococcus aureus; experiment: Antibacterial activity against Staphylococcus aureus MTCC 1430 at 750 ug/ml after 48 hr by cup-plate method; details: MTCC 1430, 48 h, read-out: DIZ
[12] = tested on: Escherichia coli; experiment: Antibacterial activity against Escherichia coli MTCC 1573 at 500 ug/ml after 48 hr by cup-plate method; details: MTCC 1573, 48 h, read-out: DIZ
[13] = tested on: Penicillium chrysogenum; experiment: Antifungal activity against Penicillium chrysogenum MTCC 161 at 500 ug/ml after 48 hr by cup-plate method; details: MTCC 161, 48 h, read-out: DIZ
[14] = tested on: Escherichia coli; experiment: Antibacterial activity against Escherichia coli MTCC 1573 at 250 ug/ml after 48 hr by cup-plate method; details: MTCC 1573, 48 h, read-out: DIZ
[15] = tested on: Pseudomonas fluorescens; experiment: Antibacterial activity against Pseudomonas fluorescens MTCC 2421 at 1000 ug/ml after 48 hr by cup-plate method; details: MTCC 2421, 48 h, read-out: DIZ
[16] = tested on: Bacillus pumilus; experiment: Antibacterial activity against Bacillus pumilus MTCC 1456 after 24 to 48 hr by tube dilution method
[17] = tested on: Micrococcus luteus; experiment: Antibacterial activity against Micrococcus luteus MTCC 1538 at 1000 ug/ml after 48 hr by cup-plate method; details: MTCC 1538, 48 h, read-out: DIZ
[18] = tested on: Penicillium chrysogenum; experiment: Antifungal activity against Penicillium chrysogenum MTCC 161 at 1250 ug/ml after 48 hr by cup-plate method; details: MTCC 161, 48 h, read-out: DIZ
[19] = tested on: Micrococcus luteus; experiment: Antibacterial activity against Micrococcus luteus MTCC 1538 at 750 ug/ml after 48 hr by cup-plate method; details: MTCC 1538, 48 h, read-out: DIZ
[20] = tested on: Pseudomonas fluorescens; experiment: Antibacterial activity against Pseudomonas fluorescens MTCC 2421 after 24 to 48 hr by tube dilution method
[21] = tested on: Staphylococcus aureus; experiment: Antibacterial activity against Staphylococcus aureus MTCC 1430 at 1000 ug/ml after 48 hr by cup-plate method; details: MTCC 1430, 48 h, read-out: DIZ
[22] = tested on: Micrococcus luteus; experiment: Antibacterial activity against Micrococcus luteus MTCC 1538 at 1250 ug/ml after 48 hr by cup-plate method; details: MTCC 1538, 48 h, read-out: DIZ
[23] = tested on: Bacillus subtilis; experiment: Antibacterial activity against Bacillus subtilis MTCC 441 at 250 ug/ml after 48 hr by cup-plate method; details: MTCC 441, 48 h, read-out: DIZ
[24] = tested on: Pseudomonas aeruginosa; experiment: Antibacterial activity against Pseudomonas aeruginosa MTCC 424 at 1250 ug/ml after 48 hr by cup-plate method; details: MTCC 424, 48 h, read-out: DIZ
[25] = tested on: Aspergillus niger; experiment: Antifungal activity against Aspergillus niger MTCC 2546 after 24 to 48 hr by tube dilution method
[26] = tested on: Staphylococcus aureus; experiment: Antibacterial activity against Staphylococcus aureus MTCC 1430 after 24 to 48 hr by tube dilution method
[27] = tested on: Pseudomonas aeruginosa; experiment: Antibacterial activity against Pseudomonas aeruginosa MTCC 424 at 1000 ug/ml after 48 hr by cup-plate method; details: MTCC 424, 48 h, read-out: DIZ
[28] = tested on: Pseudomonas aeruginosa; experiment: Antibacterial activity against Pseudomonas aeruginosa MTCC 424 at 750 ug/ml after 48 hr by cup-plate method; details: MTCC 424, 48 h, read-out: DIZ
[29] = tested on: Bacillus pumilus; experiment: Antibacterial activity against Bacillus pumilus MTCC 1456 at 500 ug/ml after 48 hr by cup-plate method; details: MTCC 1456, 48 h, read-out: DIZ

NC(=O)N1N=C(c2cccc3ccccc23)CC1c1ccc([N+](=O)[O-])cc1 (centres undefined)
MIC [1]: 50 µg/mL (≈ 139 µM)
MIC [2]: 30 µg/mL (≈ 83.2 µM)
zone of inhibition at 750 µg/mL [3]: 14 mm
zone of inhibition at 750 µg/mL [4]: 11 mm
zone of inhibition at 500 µg/mL [5]: 10 mm
zone of inhibition at 1000 µg/mL [6]: 13 mm
zone of inhibition at 1250 µg/mL [7]: 14 mm
zone of inhibition at 1250 µg/mL [8]: 16 mm
zone of inhibition at 1000 µg/mL [9]: 17 mm
MIC [10]: 15 µg/mL (≈ 41.6 µM)
zone of inhibition at 750 µg/mL [11]: 11 mm
zone of inhibition at 500 µg/mL [12]: 11 mm
zone of inhibition at 500 µg/mL [13]: 10 mm
zone of inhibition at 250 µg/mL [14]: 10 mm
zone of inhibition at 1000 µg/mL [15]: 12 mm
MIC [16]: 50 µg/mL (≈ 139 µM)
zone of inhibition at 1000 µg/mL [17]: 10 mm
zone of inhibition at 1250 µg/mL [18]: 13 mm
zone of inhibition at 750 µg/mL [19]: 9 mm
MIC [20]: 200 µg/mL (≈ 555 µM)
zone of inhibition at 1000 µg/mL [21]: 12 mm
zone of inhibition at 1250 µg/mL [22]: 11 mm
zone of inhibition at 250 µg/mL [23]: 12 mm
zone of inhibition at 1250 µg/mL [24]: 15 mm
MIC [25]: 50 µg/mL (≈ 139 µM)
MIC [26]: 50 µg/mL (≈ 139 µM)
zone of inhibition at 1000 µg/mL [27]: 13 mm
zone of inhibition at 750 µg/mL [28]: 12 mm
zone of inhibition at 500 µg/mL [29]: 9 mm
